Assay results: patent US20150252013A1, “TREATMENT OF MULTIPLE SCLEROSIS AND PSORIASIS USING PRODRUGS OF METHYL HYDROGEN FUMARATE” (XenoPort, Inc., priority 2012, published 2015)
Counter-ions that a name gives are not always drawn. Like-named read-outs stand apart in the source and are kept apart here.

Columns and labels:
[1] = system: GST activity in the forestomach tissue of rats; assay: Glutathione S transferase (GST) activity of the cytosolic extracts of rat forestomach after oral dosing; type: in vivo; settings: rat forestomach cytosol; oral gavage 180 mg-equivalents of MMF/kg once per day for 14 days; relative to DMF
Description: wherein SARprodrug is the ratio of (i) the GST activity in the forestomach tissue of rats treated with the MMF prodrug (GSTAprodrug) to (ii) the GST activity in the forestomach tissue of rats treated with a non-irritating control solution comprised of 0.5 wt % methylcellulose and 0.1 wt % Tween 80 in 10 mM sodium acetate buffer, pH 4.5 (GSTAcontrol); and SARDMF is the ratio of (i) the GST activity in the forestomach tissue of rats treated with DMF (GSTADMF) to (ii) the GST activity in the forestomach tissue of rats treated with a non-irritating control solution comprised of 0.5 wt % methylcellulose and 0.1 wt % Tween 80 in 10 mM sodium acetate buffer, pH 4.5 (GSTAcontrol). The SARprodrug is proportional to the amount of GST isozymes induced by the MMF prodrug treatment while the SARDMF is proportional to the amount of GST isozymes induced by DMF prodrug treatment. A detailed description of how to determine the GSTArel is provided in Example 1 herein. […]
Total cytosolic GST activity is determined by measuring the conjugation of 1-chloro-2,4-dinitrobenzene (CDNB) with reduced glutathione. […] The formation of the conjugate is monitored spectrophotometrically by measuring the rate of increase in absorbance at 340 nm over a period of 3 minutes. The rate of increase is measured in μmole/min production of GST-CDNB and is directly proportional to the GST activity in the sample. […]

[2] = system: rat stomach; assay: Gastrointestinal irritation evaluation in rats (Annamalai-Ma gastrointestinal irritation rat model); type: in vivo; settings: average stomach score (0-5 scale, Table 1) from at least 5 rats; oral, once per day for 4 consecutive days
Description: In order to assess gastrointestinal irritation using this model, rats are treated orally with either vehicle or the MHF prodrug to be tested (n=10 per group) at 180 mg-equivalents MHF/kg of animal body weight, dosed once per day for 4 days, followed by necropsy and gastrointestinal evaluation at 24 hrs after the final dose. Evans Blue dye is injected IV (tail vein) to visually emphasize any lesions in the gastrointestinal tissue.
Rats were dosed once per day for 4 consecutive days with 180 mg-equivalents MHF/kg body weight per day of a number of MHF prodrugs. The animals were fasted overnight prior to necropsy. On Day 5, to help visualize lesions, 1 mL of 1% Evan's blue in saline was injected into the tail vein 30 minutes prior to euthanasia. All animals were euthanized by inhalation of carbon dioxide. A partial necropsy, limited to the abdominal cavities, was performed. The stomach and small intestine were removed. Residual material was washed away, using an irrigation syringe filled with saline. The stomach was cut along the larger curvature and washed gently with normal saline, and was examined for any lesions. The stomachs were scored in accordance with the scoring system outlined in Table 1. The stomach scores from at least 5 rats were used to calculate an average gastrointestinal irritation score, which scores are reported in Table 2.

[3] = system: C57BL/6 mice; assay: MOG35-55 mouse EAE model of multiple sclerosis; type: in vivo; settings: oral 90 mg-eq MHF/kg twice daily, Days 3 to 29
Description: (§1) C57BL/6 mice (6 females) were injected subcutaneously with MOG35-55 peptide in CFA with Mycobacterium tuberculosis. Pertussis toxin ([…]) was injected IV on Day 0 and Day 2 post-immunization. Animals received oral XP23829 or DMF (90 mg-eq MHF/kg twice daily) or vehicle on Days 3 to 29. Daily EAE clinical disease scores (5 point scale) were recorded. End of study MHF blood levels were determined by LC/MS/MS.

[4] = system: Balb/c mice; assay: Imiquimod (IMQ) mouse model of psoriasis; type: in vivo; settings: Day -5 to Day 5
Text: Balb/c mice (10 males/group) received daily topical IMQ (5% cream) on shaved back and right ear for 5 days. […] Erythema score was the primary outcome measure.

[5] = MHF and intact prodrug blood levels in the mouse efficacy studies (LC/MS/MS); type: in vivo; settings: oral dosing
Description: as §1

[6] = Toxicokinetics at steady state in rats; type: in vivo, rat
Description: (§2) Gastrointestinal toxicity was assessed by gross necropsy and histopathology. Toxicokinetics were assessed at steady state in parallel cohorts.

[7] = Toxicokinetics at steady state in monkeys; type: in vivo, monkey
Description: as §2

[8] = system: CD rats; assay: 4-week GLP toxicity study in rats, gastrointestinal toxicity by gross necropsy and histopathology; settings: 500 mg/kg/day for 4 weeks
Description: (§3) (N,N-diethylcarbamoyl)methyl methyl (2E)but-2-ene-1,4-dioate was administered to CD rats (10/sex/dose) at 0 (vehicle), 150, 250, or 500 mg/kg/day and monkeys (3/sex/group) at 0 (vehicle), 25, 75, or 200 mg/kg/day for 4 weeks in GLP toxicity studies. In parallel studies, DMF was administered at doses intended to deliver similar MHF exposures: in rats (10/sex/dose) at 90, 150, and 300 mg/kg/day and monkeys (3/sex/group) at 0 (vehicle), 40, 90, or 250 mg/kg/day for 4 weeks. Gastrointestinal toxicity was assessed by gross necropsy and histopathology.

[9] = system: CD rats; settings: rat, in vivo, 300 mg/kg/day
Description: as §3

[10] = system: monkeys; assay: 4-week GLP toxicity study in monkeys, gastrointestinal toxicity by gross necropsy and histopathology
Description: as §3

| Structure (SMILES) | GI Irritation Score (180 mg-eq of MHF/kg) [2] | melting point [°C] | further results |
| --- | --- | --- | --- |
| CCN(CC)C(=O)COC(=O)/C=C/C(=O)OC [(N,N-Diethylcarbamoyl)methyl methyl (2E)but-2-ene-1,4-dioate] | 1.4 |  | relative GST enzyme activity (GSTArel) [1]: less than 80%; reduction in EAE clinical score (Day 29 and overall AUC) compared to vehicle [3]: significant reduction; effect versus control in IMQ model (erythema score primary outcome) ([4]; oral 90 mg-eq/kg twice daily): significant; intact prodrug in the systemic blood [5]: not detected; conversion to MHF after absorption [6]: converted rapidly to MHF; prodrug in the systemic circulation [6]: not detected; MHF exposure compared with DMF at 300 mg/kg/day ([6]; 500 mg/kg/day): identical; conversion to MHF after absorption [7]: converted rapidly to MHF; prodrug in the systemic circulation [7]: not detected; glandular stomach findings [8]: no adverse effects on glandular stomach |
| COC(=O)/C=C/C(=O)OCC(=O)N(C)C [(N,N-Dimethylcarbamoyl)methyl methyl (2E)but-2-ene-1,4-dioate] | 2.4 |  |  |
| CCN(C(=O)COC(=O)/C=C/C(=O)OC)C1CC1 [(N-cyclopropyl-N-ethylcarbamoyl)methyl methyl 2(E)but-2-ene-1,4-dioate] | 1.0 | 92.1 |  |
| COC(=O)/C=C/C(=O)OCC(=O)N(C)C1CC1 [(N-cyclopropyl-N-methylcarbamoyl)methyl methyl 2(E)but-2-ene-1,4-dioate] | 2.6 | 93.6 |  |
| COC(=O)/C=C/C(=O)OC [Dimethyl Fumarate] | 4.6 |  | reduction in EAE clinical score (Day 29 and overall AUC) compared to vehicle [3]: not statistically significant; effect versus control in IMQ model (erythema score primary outcome) ([4]; oral 45 or 90 mg-eq MMF/kg twice daily (either dose)): not significant; glandular stomach findings [9]: ulceration, necrosis and loss of mucosa of glandular stomach; gastric mucosal hyperplasia (histopathology) compared to (N,N-diethylcarbamoyl)methyl methyl (2E)but-2-ene-1,4-dioate ([10]; monkeys, 4 weeks): greater gastric mucosal hyperplasia; gastrointestinal irritation after 4 weeks of dosing ([10]; monkeys, 40, 90 or 250 mg/kg/day): dose dependent gastrointestinal irritation; mortality ([10]; monkeys, high dose, 4 weeks): One high dose DMF monkey died from gastric ulceration |
| COC(=O)/C=C/C(=O)OCC(=O)N1CCOCC1 [Methyl 2-morpholin-4-yl-2-oxoethyl (2E)but-2-ene-1,4-dioate] | 2.9 | 124 to 126 |  |
| COC(=O)/C=C/C(=O)OCCN1CCOCC1 [Methyl 2-morpholin-4-ylethyl (2E)but-2-ene-1,4-dioate] | 0.0 |  |  |
| COC(=O)/C=C/C(=O)OCC(=O)N1CCCC1 [Methyl 2-oxo-2-pyrrolidinylethyl 2(E)but-2-ene-1,4-dioate] | 3.0 | 102.1 |  |
| COC(=O)/C=C/C(=O)OCCCN1CCOCC1 [Methyl 3-morpholin-4-ylpropyl (2E)but-2-ene-1,4-dioate] | 0.0 |  |  |
| COC(=O)/C=C/C(=O)OCCCCN1CCOCC1 [Methyl 4-morpholin-4-ylbutyl (2E)but-2-ene-1,4-dioate] | 0.6 |  |  |
| COC(=O)/C=C/C(=O)OCCCCCN1CCOCC1 [Methyl 5-morpholin-4-ylpentyl (2E)but-2-ene-1,4-dioate] | 0.0 |  |  |
| COC(=O)/C=C/C(=O)OCCCCCCN1CCOCC1 [Methyl 6-morpholin-4-ylhexyl (2E)but-2-ene-1,4-dioate] | 0.0 |  |  |
